This experiment has as its target T1, ZnT1 binding to GluN2A C-terminal peptide sequences (Mus musculus, UniProt Q60738).
T1 construct: made in house; peptides: Fmoc spot synthesis on nitrocellulose
T1 sequence (Q60738 1-503): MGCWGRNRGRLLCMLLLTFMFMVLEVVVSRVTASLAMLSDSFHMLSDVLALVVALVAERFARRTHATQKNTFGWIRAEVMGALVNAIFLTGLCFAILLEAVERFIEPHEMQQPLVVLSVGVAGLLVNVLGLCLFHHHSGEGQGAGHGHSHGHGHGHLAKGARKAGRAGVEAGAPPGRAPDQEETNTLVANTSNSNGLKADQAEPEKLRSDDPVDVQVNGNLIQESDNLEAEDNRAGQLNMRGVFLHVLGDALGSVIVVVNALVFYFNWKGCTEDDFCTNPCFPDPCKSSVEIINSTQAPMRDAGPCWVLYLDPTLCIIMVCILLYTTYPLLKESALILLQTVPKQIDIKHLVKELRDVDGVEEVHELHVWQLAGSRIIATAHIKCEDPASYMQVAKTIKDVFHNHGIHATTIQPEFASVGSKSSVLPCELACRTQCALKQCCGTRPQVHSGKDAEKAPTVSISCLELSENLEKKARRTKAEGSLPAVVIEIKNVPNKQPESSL
The experiment in a line: Peptide spot array repeated in the presence of N2AZ or scN2AZ. As to conditions: 100 μM, compared to scN2AZ control. As to the method:
FIG. 2: N2AZ reduces ZnT1 binding to GluN2A C-terminal peptide sequences. Quantification of peptide spot arrays of GluN2A C-terminus region (residues 1390-1464) using the same peptide segments as FIG. 1B (Peptides 1-61 correspond to fragments of SEQ ID NO: 21, as listed in Table 1). […] Mean±SEM (n=4). (Inset) Representative peptide spot-array in scN2AZ (top) and N2AZ (bottom).
Far-Western protein-binding affinity assays were performed as previously described (Brittain et al., 2011; Yeh et al., 2017) (Moutal et al., 2017). Peptide spot arrays (15 mers) spanning the proximal C-terminus residues 1390-1464 of mouse GluN2A (Uniprot# P35436) in overlapping 1 aa steps were constructed using the Spots-synthesis method. Standard 9-fluorenylmethoxy carbonyl (Fmoc) chemistry was used to synthesize the peptides and spot them onto nitrocellulose membranes pre-derivatized with a polyethylene glycerol spacer (Intavis). […] Finally, the membrane was incubated in secondary antibody for 45 minutes, washed 3 times for 5 minutes in TBST, and visualized by infrared fluorescence (Li-Cor). […]
To study the effect of ZnT1 on NMDAR modulation, a peptide was designed to disrupt the ZnT1-GluN2A interaction. […] Next, the peptide spot arrays were probed with flag-tagged ZnT1-enriched cell lysates and ZnT1 binding was visualized and quantified with immunofluorescence against the flag tag (FIG. 1A). […]

Here are results for 1 sequence from patent publication US20230034660A1, “PEPTIDES THAT ENHANCE NMDA RECEPTOR FUNCTION AND USE THEREOF” (University of Pittsburgh - Of the Commonwealth System of …, priority 2019, published 2023).

On to NDSYLRSSL [Peptide N2AZ], for which the “ZnT1 binding to the spot array in the presence of peptide” value is on record as “significantly reduced”.
